# Legend:
# Assay type in all cases: in vivo
# Echinochloa crus-galli = test: Pre-emergence herbicidal activity against ECHCG; settings: dosage 80 g/ha, scored visually after about 3 weeks vs untreated controls (100% = plants have died, 0% = like control plants); for pest or weed control at 80 g/ha: Echinochloa crus-galli, 504 h
# Source text: (§1) 1. Pre-Emergence Herbicidal Action and Crop Plant Compatibility Seeds of monocotyledonous and dicotyledonous weed plants and crop plants are placed in plastic or wood fiber pots and covered with soil. The compounds of the invention, formulated in the form of wettable powders (WP) or as emulsion concentrates (EC), are then applied onto the surface of the covering soil as aqueous suspension or emulsion with addition of 0.5% additive at a water application rate of 600 l/ha (converted). After the treatment, the pots are placed in a greenhouse and kept under good growth conditions for the trial plants. After about 3 weeks, the effect of the preparations is scored visually in comparison with untreated controls as percentages. For example, 100% activity=the plants have died, 0% activity=like control plants. ECHCG: Echinochloa crus-galli HORMU: Hordeum murinum
# Abutilon theophrasti = test: Pre-emergence herbicidal activity against ABUTH; settings: dosage 80 g/ha
# Source text: as §1, with “ABUTH: Abutilon theophrasti ALOMY: Alopecurus myosuroides” for “ECHCG: Echinochloa crus-galli HORMU: Hordeum murinum”
# Hordeum murinum = test: Pre-emergence herbicidal activity against HORMU; settings: dosage 80 g/ha
# Source text: as §1
# Pharbitis purpurea = test: Pre-emergence herbicidal activity against PHBPU; settings: Ipomoea purpurea, 504 h, dosage 80 g/ha
# Source text: as §1, with “LOLRI: Lolium rigidum PHBPU: Pharbitis purpurea” for “ECHCG: Echinochloa crus-galli HORMU: Hordeum murinum”
SMILES,pest or weed control at 80 g/ha (Echinochloa crus-galli),Pre-emergence herbicidal activity against ABUTH in % (Abutilon theophrasti),"pest or weed control at 80 g/ha (Hordeum murinum; Hordeum murinum, 504 h)",pest or weed control at 80 g/ha (Pharbitis purpurea),Pre-emergence herbicidal activity against ECHCG in % (Echinochloa crus-galli),Pre-emergence herbicidal activity against HORMU in % (Hordeum murinum)
"COC(=O)[C@H]1C[C@@H](NC(=O)[C@@]2(C)CC(c3cc(F)cc(F)c3)=NO2)CO1 (mixture of isomers) [I-09, methyl cis-4-[[(5R)-3-(3,5-difluorophenyl)-5-methyl-4H-isoxazole-5-carbonyl]amino]tetrahydrofuran-2-carboxylate]",90%,100%,,,,
"C=C[C@]1(C(=O)N[C@H]2CO[C@@H](C(=O)OC)C2)CC(c2cc(F)cc(F)c2)=NO1 (mixture of isomers) [I-10, methyl cis-4-[[(5S)-3-(3,5-difluorophenyl)-5-vinyl-4H-isoxazole-5-carbonyl]amino]tetrahydrofuran-2-carboxylate]",100%,100%,100%,80%,,
"COC(=O)[C@H]1C[C@@H](NC(=O)C2(C)CC(c3cc(C)cc(Br)c3)=NO2)CO1 (relative stereo) [I-04, methyl cis-4-[[3-(3-bromo-5-methylphenyl)-5-methyl-4H-isoxazole-5-carbonyl]amino]tetrahydrofuran-2-carboxylate]",,100%,,,,
"COC(=O)[C@H]1C[C@@H](NC(=O)C2(C(F)(F)F)CC(c3cc(F)cc(F)c3)=NO2)CO1 (relative stereo) [I-06, methyl cis-4-[[3-(3,5-difluorophenyl)-5-(trifluoromethyl)-4H-isoxazole-5-carbonyl]amino]tetrahydrofuran-2-carboxylate]",80%,100%,,80%,,
"COC(=O)[C@H]1C[C@@H](NC(=O)C2(OC)CC(c3cc(C)cc(Br)c3)=NO2)CO1 (relative stereo) [I-08, methyl cis-4-[[3-(3-bromo-5-methylphenyl)-5-methoxy-4H-isoxazole-5-carbonyl]amino]tetrahydrofuran-2-carboxylate]",,100%,,,,
"COC(=O)[C@H]1C[C@@H](NC(=O)C2(OC)CC(c3ccccc3)=NO2)CO1 (relative stereo) [I-14, methyl cis-4-[(5-methoxy-3-phenyl-4H-isoxazole-5-carbonyl)amino]tetrahydrofuran-2-carboxylate]",,100%,,,,
"C=C[C@]1(C(=O)N[C@H]2CO[C@@H](C(=O)OC)C2)CC(c2cc(F)cc(F)c2)=NO1 (single isomer, unassigned) [I-11]",,80%,,100%,100%,100%

# Reference: patent US11597724B2, “Herbicidally active 3-phenylisoxazoline-5-carboxamides of tetrahydro and dihydrofuran carboxylic acids and esters” (Bayer Aktiengesellschaft, priority 2017, dated 2023)
